Key:
XPA-deficient cells = assay: Viability of XPA-deficient versus proficient fibroblasts (Alamar blue); type: cell-based, human; settings: 72 h, in words
Method: Figure 7 Sensitivity of nucleotide excision repair (NER) defective cells to hydroxamic acid- and benzamide-type HDACi. Viability of wild-type human fibroblasts and fibroblasts defective in nucleotide excision repair (NER) pathways (i.e., global genome nucleotide excision repair (GG-NER) or transcription-coupled nucleotide excision repair (TC-NER)) due to a defect in Xeroderma pigmentosum group A protein (XPA) or Cockayne syndrome protein B (CSB), respectively, was analyzed 72 h after the addition of HDACi by the Alamar blue assay, as described in Methods. The DNA intrastrand cross-linking agent cisplatin was used for control. Data shown are the mean ± SD from three independent experiments (n = 3) each performed in triplicate (N = 3); ns, not significant; *, p ≤ 0.05; **, p ≤ 0.01 as compared to the corresponding untreated controls (Student´s t-test).
V79 hamster lung cells, which are recommended in the OECD toxicology guidelines for hazard identification (i.e., cytotoxicity and genotoxicity) of chemicals, were purchased from the German Collection of Microorganisms and Cell Cultures (DSMZ, Braunschweig, Germany). They were cultured in Dulbecco´s modified Eagle medium and Ham´s F12 medium (DMEM/F12) (PromoCell, Heidelberg, Germany) containing 10% fetal calf serum at 37 °C in a humidified atmosphere containing 5% CO2. VC8 hamster cells were defective in DNA double-strand break (DSB) repair by homologous recombination (HR) due to the lack of functional BRCA2 protein [69, 70]. VC8 cells were provided by B. Kaina (Institute of Toxicology, Mainz, Germany). Nucleotide excision repair defective XPA and CSB deficient cells were also provided by B. Kaina and were described before. […]
Cell viability was determined using the Alamar blue assay, which reflected the mitochondrial activity. […] Afterwards, the Neutral red that was taken up by the cells was extracted (50% ethanol/1% of acetic acid, 15 min at room temperature (RT)) and absorbance (540 nm) was measured. […] Approximate IC50 (~IC50, see Supplementary Table S1) were calculated from the corresponding dose-response curves.

V79 cells [1] = assay: Cell cycle distribution / SubG1 fraction by flow cytometry; type: cell-based, hamster; settings: 24 h, in words
Method: For flow cytometry-based analysis of cell cycle distribution, cells were trypsinized and combined with floating cells present in the medium. Following fixation with ice-cold ethanol (80%) (≥1 h, −20 °C), cells were pelleted (1000× g, 10 min, 4 °C) and suspended in phosphate-buffered saline (PBS). DNase-free RNase A (Serva, Heidelberg, Germany) was added (2 μg/mL, 1 h at RT). Nuclei were stained with propidium iodide (36.7 μg/mL Sigma, Steinheim, Germany) and analysis was performed using BD Accuri™C6 flow cytometer (BD, Franklin Lakes, NJ, USA).

V79 cells [2] = assay: Phospho-ATM (pATM) foci formation; type: cell-based, hamster; settings: 6 to 24 h, V79, in words
From the text: Figure 4 Cell cycle-related formation of DNA damage by hydroxamic acid- and benzamide-type HDACi. […] (B) For positive control, ionizing radiation (IR) was used. Shown are representative pictures of γH2AX, 53BP1, and pATM stained cells. […] Data shown are the mean ± SD from three independent experiments (n = 3); *, p ≤ 0.05; **, p ≤ 0.01 as compared to the untreated control, which was set to 1.0 (Student´s t-test).

V79 cells [3] = assay: Nuclear 53BP1 foci formation; type: cell-based, hamster; settings: 6 to 24 h, V79, in words
Method: The frequency of nuclear foci formed by S139 phosphorylated H2AX (γH2AX foci), which is a surrogate marker of DNA damage, especially DNA double-strand breaks (DSBs), was assayed by immunocytochemistry-based analysis. […] The appearance of nuclear 53BP1 foci, which is another marker of DSBs, was also determined by immunocytochemistry. Cells were fixed with 4% formaldehyde in phosphate-buffered saline (PBS) (MERCK, Darmstadt, Germany) (15 min, RT) followed by incubation with ice-cold methanol (≥20 min, −20 °C). After blocking (1 h, RT, blocking solution: 5% BSA (MERCK, Darmstadt, Germany) in PBS/0.3% Triton X-100 (Sigma, Steinheim, Germany)), incubation with γH2AX antibody and 53BP1 antibody was performed (1:500, overnight, 4 °C). After incubation with the secondary fluorescence-labeled antibody (1:500, 1 h, RT, in the dark), cells were mounted in Vectashield (Vector Laboratories (Burlingame, CA, USA)) containing DAPI. The number of nuclear γH2AX and 53BP1 foci was scored (Olympus BX43 fluorescence microscope). Only nuclei with distinct foci were evaluated and γH2AX pan-stained nuclei were excluded from the foci analyses. Data are shown as the mean ± SEM of three independent experiments with ≥50 nuclei analyzed per experimental condition.

[4] = parameters: method as in PMID 15897550; settings: humans; read-out: maximal blood serum concentration (Cmax); cited from earlier work

Row | Structure (SMILES) | sensitivity of XPA-deficient versus XPA proficient cells (XPA-deficient cells) | percentage of V79 cells in the SubG1 fraction (V79 cells [1]) | formation of phospho-ATM (pATM) foci (V79 cells [2]) | formation of nuclear 53BP1 foci (V79 cells [3]) | Cmax [4] [nM]
1 | CN(C)c1ccc(C(=O)N(CC(=O)NCc2ccccc2)Cc2ccc(C(=O)NO)cc2)cc1 [DDK137] | XPA-deficient cells are even more resistant | – | – | – | –
2 | Nc1ccccc1NC(=O)c1ccc(CNC(=O)OCc2cccnc2)cc1 [Entinostat, entinostat, reference compound] | – | did not increase the percentage of cells present in the SubG1 fraction | – | – | –
3 | Nc1ccc(F)cc1NC(=O)c1ccc(CONC(=O)C=Cc2cccnc2)cc1 [MPK77] | – | neither induced cell death as reflected by an increase in the SubG1 population | – | – | –
4 | O=C(CCCCCCC(=O)Nc1ccccc1)NO [Vorinostat, vorinostat, reference compound] | XPA-deficient cells are even more resistant | moderate increase of the percentage of V79 cells present in the SubG1 fraction | did not cause the formation of phospho-ATM (pATM) foci | failed to cause the formation of nuclear 53BP1 foci | ~1000

— publication PMC7370100, “In Vitro Assessment of the Genotoxic Hazard of Novel Hydroxamic Acid- and Benzamide-Type Histone Deacetylase Inhibitors (HDACi)” (International Journal of Molecular Sciences, 2020)
